Assay results reported in US5292733A, “Cephalosporin compounds” (Lucky Limited, priority 1991, dated 1994).
≈ marks a conversion by molar mass, not a printed value.

Legend:
Assay in all cases: Antibacterial activity MIC, two-fold agar dilution
Assay type in all cases: cell-based
[1] = test system: Acinetobacter calcoaceticus ATCC 15473; details: ATCC15473; Acinetobacter calcoaceticus ATCC 15473; Muller-Hinton agar, 37° C., 20 hours; read-out: Antibacterial Activity MIC
Procedure, shortened: (§1)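 Read-out is the MIC on agar plates after 20 hours at 37° C. Test compounds were dispersed as two-fold serial dilutions in Muller-Hinton medium, then inoculated with 2 μl of standard strain containing 10^7 CFU per ml.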

[2] = test system: Bacillus cereus ATCC 11778; details: ATCC11778; Bacillus cereus ATCC 11778; Muller-Hinton agar, 37° C., 20 hours; read-out: Antibacterial Activity MIC
Procedure, shortened: as §1

[3] = test system: Bacillus megaterium ATCC 9885; details: Priestia megaterium, ATCC9885; Bacillus megaterium ATCC 9885; Muller-Hinton agar, 37° C., 20 hours; read-out: Antibacterial Activity MIC
Procedure, shortened: as §1

[4] = test system: Citrobacter freundii ATCC 8090; details: ATCC8090; Citrobacter freundii ATCC 8090; Muller-Hinton agar, 37° C., 20 hours; read-out: Antibacterial Activity MIC
Procedure, shortened: as §1

[5] = test system: Enterobacter aerogenes ATCC 29751; details: Klebsiella aerogenes, ATCC29751; Enterobacter aerogenes ATCC 29751; Muller-Hinton agar, 37° C., 20 hours; read-out: Antibacterial Activity MIC
Procedure, shortened: as §1

[6] = test system: Enterobacter cloacae ATCC 27508; details: ATCC27508; Enterobacter cloacae ATCC 27508; Muller-Hinton agar, 37° C., 20 hours; read-out: Antibacterial Activity MIC
Procedure, shortened: as §1

[7] = test system: Escherichia coli ATCC 10536; details: ATCC10536, Muller-Hinton agar, 37° C., 20 hours
Procedure, shortened: as §1

[8] = test system: Escherichia coli ATCC 25922; details: ATCC25922, Muller-Hinton agar, 37° C., 20 hours
Procedure, shortened: as §1

[9] = test system: Klebsiella pneumoniae ATCC 10031; details: ATCC10031; Klebsiella pneumoniae ATCC 10031; Muller-Hinton agar, 37° C., 20 hours; read-out: Antibacterial Activity MIC
Procedure, shortened: as §1

[10] = test system: Micrococcus luteus ATCC 9341; details: ATCC9341; Micrococcus luteus ATCC 9341; Muller-Hinton agar, 37° C., 20 hours; read-out: Antibacterial Activity MIC
Procedure, shortened: as §1

[11] = test system: Morganella morganii ATCC 8076h; details: ATCC8076H, Muller-Hinton agar, 37° C., 20 hours
Procedure, shortened: as §1

[12] = test system: Proteus mirabilis ATCC 25933; details: ATCC25933; Proteus mirabilis ATCC 25933; Muller-Hinton agar, 37° C., 20 hours; read-out: Antibacterial Activity MIC
Procedure, shortened: as §1

[13] = test system: Proteus vulgaris ATCC 6059; details: ATCC6059; Proteus vulgaris ATCC 6059; Muller-Hinton agar, 37° C., 20 hours; read-out: Antibacterial Activity MIC
Procedure, shortened: as §1

[14] = test system: Providencia rettgeri ATCC 9250; details: ATCC9250, Muller-Hinton agar, 37° C., 20 hours
Procedure, shortened: as §1

[15] = test system: Pseudomonas aeruginosa ATCC 10145; details: ATCC10145; Pseudomonas aeruginosa ATCC 10145; Muller-Hinton agar, 37° C., 20 hours; read-out: Antibacterial Activity MIC
Procedure, shortened: as §1

[16] = test system: Pseudomonas aeruginosa ATCC 25619; details: ATCC25619; Pseudomonas aeruginosa ATCC 25619; Muller-Hinton agar, 37° C., 20 hours; read-out: Antibacterial Activity MIC
Procedure, shortened: as §1

[17] = test system: Pseudomonas aeruginosa ATCC 27853; details: ATCC27853; Pseudomonas aeruginosa ATCC 27853; Muller-Hinton agar, 37° C., 20 hours; read-out: Antibacterial Activity MIC
Procedure, shortened: as §1

[18] = test system: Salmonella typhimurium ATCC 14028; details: Salmonella enterica; Salmonella typhimurium ATCC 14028; Muller-Hinton agar, 37° C., 20 hours; read-out: Antibacterial Activity MIC
Procedure, shortened: as §1

[19] = test system: Serratia marcescens ATCC 27117; details: ATCC27117; Serratia marcescens ATCC 27117; Muller-Hinton agar, 37° C., 20 hours; read-out: Antibacterial Activity MIC
Procedure, shortened: as §1

[20] = test system: Shigella flexneri ATCC 11836; details: ATCC11836, Muller-Hinton agar, 37° C., 20 hours
Procedure, shortened: as §1

[21] = test system: Shigella sonnei ATCC 11060; details: ATCC11060, Muller-Hinton agar, 37° C., 20 hours
Procedure, shortened: as §1

[22] = test system: Staphylococcus aureus ATCC 10537; details: ATCC10537; Staphylococcus aureus ATCC 10537; Muller-Hinton agar, 37° C., 20 hours; read-out: Antibacterial Activity MIC
Procedure, shortened: as §1

[23] = test system: Staphylococcus aureus ATCC 6538p; details: ATCC6538P; Staphylococcus aureus ATCC 6538p; Muller-Hinton agar, 37° C., 20 hours; read-out: Antibacterial Activity MIC
Procedure, shortened: as §1

[24] = test system: Staphylococcus epidermidis ATCC 12228; details: ATCC12228; Staphylococcus epidermidis ATCC 12228; Muller-Hinton agar, 37° C., 20 hours; read-out: Antibacterial Activity MIC
Procedure, shortened: as §1

[25] = test system: Streptococcus faecalis ATCC 29212; details: Enterococcus faecalis, ATCC29212; Streptococcus faecalis ATCC 29212; Muller-Hinton agar, 37° C., 20 hours; read-out: Antibacterial Activity MIC
Procedure, shortened: as §1

CO/N=C(\C(=O)N[C@@H]1C(=O)N2C(C(=O)[O-])=C(CSc3cc(N)nc(N)[n+]3C)CS[C@H]12)c1csc(N)n1 [Compound I-7, (6R,7R)-7-[(Z)-2-(2-aminothiazol-4-yl)-2-(methoxyimino)acetamido]-3-(2,6-diamino-3-methylpyrimidinium-4-yl)thiomethyl-3-cephem-4-carboxylate]
MIC [1]: 8 µg/mL (≈ 14.5 µM) | MIC [2]: 64 µg/mL (≈ 116 µM) | MIC [3]: 0.13 µg/mL (≈ 0.236 µM) | MIC [4]: 0.25 µg/mL (≈ 0.453 µM) | MIC [5]: 0.5 µg/mL (≈ 0.906 µM) | MIC [6]: 0.016 µg/mL (≈ 0.029 µM) | MIC [7]: 0.13 µg/mL (≈ 0.236 µM) | MIC [8]: 0.13 µg/mL (≈ 0.236 µM) | MIC [9]: 0.016 µg/mL (≈ 0.029 µM) | MIC [10]: 0.063 µg/mL (≈ 0.114 µM) | MIC [11]: 0.016 µg/mL (≈ 0.029 µM) | MIC [12]: 0.031 µg/mL (≈ 0.0562 µM) | MIC [13]: 0.063 µg/mL (≈ 0.114 µM) | MIC [14]: ≤ 0.008 µg/mL | MIC [15]: 64 µg/mL (≈ 116 µM) | MIC [16]: 2 µg/mL (≈ 3.63 µM) | MIC [17]: 32 µg/mL (≈ 58 µM) | MIC [18]: 1 µg/mL (≈ 1.81 µM) | MIC [19]: 0.5 µg/mL (≈ 0.906 µM) | MIC [20]: 0.063 µg/mL (≈ 0.114 µM) | MIC [21]: 0.5 µg/mL (≈ 0.906 µM) | MIC [22]: 1 µg/mL (≈ 1.81 µM) | MIC [23]: 2 µg/mL (≈ 3.63 µM) | MIC [24]: 0.5 µg/mL (≈ 0.906 µM) | MIC [25]: > 128 µg/mL

C[n+]1c(N)cc(SCC2=C(C(=O)[O-])N3C(=O)[C@@H](NC(=O)/C(=N\OC(C)(C)C(=O)O)c4csc(N)n4)[C@H]3SC2)nc1N [Compound I-12, (6R,7R)-7-[(Z)-2-(2-aminothiazol-4-yl)-2-(carboxyprop-2-oxyimino)acetamido]-3-(2,6-diamino-1-methylpyrimidinium-4-yl)thiomethyl-3-cephem-4-carboxylate]
MIC [1]: 8 µg/mL (≈ 12.8 µM) | MIC [2]: 128 µg/mL (≈ 205 µM) | MIC [3]: 0.25 µg/mL (≈ 0.401 µM) | MIC [4]: 0.13 µg/mL (≈ 0.208 µM) | MIC [5]: 2 µg/mL (≈ 3.21 µM) | MIC [6]: 0.031 µg/mL (≈ 0.0497 µM) | MIC [7]: 0.25 µg/mL (≈ 0.401 µM) | MIC [8]: 0.25 µg/mL (≈ 0.401 µM) | MIC [9]: 0.063 µg/mL (≈ 0.101 µM) | MIC [10]: 0.5 µg/mL (≈ 0.802 µM) | MIC [11]: ≤ 0.008 µg/mL | MIC [12]: 0.13 µg/mL (≈ 0.208 µM) | MIC [13]: 0.25 µg/mL (≈ 0.401 µM) | MIC [14]: ≤ 0.008 µg/mL | MIC [15]: 2 µg/mL (≈ 3.21 µM) | MIC [16]: 1 µg/mL (≈ 1.6 µM) | MIC [17]: 1 µg/mL (≈ 1.6 µM) | MIC [18]: 0.25 µg/mL (≈ 0.401 µM) | MIC [19]: 0.5 µg/mL (≈ 0.802 µM) | MIC [20]: 0.063 µg/mL (≈ 0.101 µM) | MIC [21]: 0.25 µg/mL (≈ 0.401 µM) | MIC [22]: 4 µg/mL (≈ 6.41 µM) | MIC [23]: 8 µg/mL (≈ 12.8 µM) | MIC [24]: 4 µg/mL (≈ 6.41 µM) | MIC [25]: > 128 µg/mL

CC[n+]1c(N)nc(N)nc1SCC1=C(C(=O)[O-])N2C(=O)C(NC(=O)/C(=N\OC(C)(C)C(=O)O)c3csc(N)n3)[C@H]2SC1 (stereo partly drawn) [Compound I-24, 7-[(Z)-2-(2-aminothiazol-4-yl) -2-(2-carboxyprop-2-oxyimino)acetamido]-3-(4,6-diamino-1-ethyl-1,3,5-triazinium-2-yl)thiomethyl-3-cephem-4-carboxylate]
MIC [1]: 4 µg/mL (≈ 6.26 µM) | MIC [2]: > 128 µg/mL | MIC [3]: 0.5 µg/mL (≈ 0.783 µM) | MIC [4]: 0.13 µg/mL (≈ 0.204 µM) | MIC [5]: 2 µg/mL (≈ 3.13 µM) | MIC [6]: 0.031 µg/mL (≈ 0.0485 µM) | MIC [7]: 0.13 µg/mL (≈ 0.204 µM) | MIC [8]: 0.063 µg/mL (≈ 0.0986 µM) | MIC [9]: 0.063 µg/mL (≈ 0.0986 µM) | MIC [10]: 1 µg/mL (≈ 1.57 µM) | MIC [11]: ≤ 0.008 µg/mL | MIC [12]: 0.063 µg/mL (≈ 0.0986 µM) | MIC [13]: 0.063 µg/mL (≈ 0.0986 µM) | MIC [14]: ≤ 0.008 µg/mL | MIC [15]: 2 µg/mL (≈ 3.13 µM) | MIC [16]: 1 µg/mL (≈ 1.57 µM) | MIC [17]: 1 µg/mL (≈ 1.57 µM) | MIC [18]: 0.13 µg/mL (≈ 0.204 µM) | MIC [19]: 0.13 µg/mL (≈ 0.204 µM) | MIC [20]: 0.063 µg/mL (≈ 0.0986 µM) | MIC [21]: 0.063 µg/mL (≈ 0.0986 µM) | MIC [22]: 2 µg/mL (≈ 3.13 µM) | MIC [23]: 4 µg/mL (≈ 6.26 µM) | MIC [24]: 2 µg/mL (≈ 3.13 µM) | MIC [25]: > 128 µg/mL
